Source: US9173878B2, “Brain function improving agent” (Tohoku University, priority 2012, dated 2015)
Where a name gives a salt, the structure may show the parent alone. Values belong to the compound of their own block, whether it stands above or below them.

Assays:
[1] = test system: Alzheimer's disease; conditions: treating Alzheimer's disease; cited from earlier work
[2] = test system: mouse hippocampus CA1 region; test: Long-term potentiation of synaptic transmission (LTP), fEPSP in hippocampus slice; format: cell-based; conditions: 100 pM in artificial cerebrospinal fluid
Procedure: (§1) The brain of a male mouse C57BL/6 (10-12 weeks old) was sagitally sectioned, then a coronal section brain slice (400 μm) including a hippocampus CA1 region was prepared. The hippocampus slice was recovered in an artificial cerebrospinal fluid (126 mM NaCl, 5 mM KCl, 26 mM NaHCO3, 1.3 mM MgSO4-7H2O, 1.26 mM KH2PO4, 2.4 mM CaCl2-2H2O, 10 mM glucose) saturated by a 95% O2/5% CO2 gas at 34° C. for 2 hours. The hippocampus slice was transferred to a measurement chamber, and ST101 (100 pM), SAK1 (100 pM), SAK3 (100 pM) were added to the artificial cerebrospinal fluid, and perfused. Then, the Schaffer branch to be input to the hippocampus CA1 region and the commissural fibers were stimulated by stimulus electrodes, and the postsynaptic potential (fEPSP; field excitatory postsynaptic potential) in the CA1 region induced thereby was measured. After measurement, just the hippocampus CA1 region was sliced from the slice segment, and frozen for preservation at −80° C. for measurement with immunoblotting.

[3] = test system: CaMKII; test: CaMKII self-phosphorylation (activation) in hippocampus CA1 region, immunoblot; format: cell-based, mouse; conditions: hippocampus CA1 region 60 minutes after LTP, 100 pM
Procedure: as §1, with “After measurement, just the hippocampus CA1 region was sliced from the slice segment, and frozen for preservation at −80° C. for measurement with immunoblotting.” left out
The above frozen mouse brain slice segment (hippocampus CA1 region) is used for homogenization on ice by adding 150 μL homogenizing buffer (50 mM Tris-HCl pH 7.5, 0.5% Triton X-100, 4 mM EGTA, 0.5 M NaCl, 10 mM EDTA, 1 mM Na3VO4, 30 mM sodium pyrophosphate, 50 mM NaF, 1 mM DTT, 100 nM calyculin A, 50 μg/mL leupeptin, 25 μg/mL pepstatin A, 50 μg/mL trypsin inhibitor) per sample. […] The protein concentration was measured by the Bradford method using a part of the supernatant. […]

[4] = test system: non-transfected mouse neuroblastoma cell line Neuro2A; test: Calcium imaging (Fura-2) in T-type calcium channel non-expressing Neuro2A cells; format: cell-based
Procedure: (§2) The cells of mouse neuroblastoma cell line Neuro2A were purchased from the Human Science Research Resources Bank (#IFO50081, Osaka, Japan). […] Then, the Neuro2A cells were seeded to a glass bottom dish at a concentration of 1 to 2×10^6 cell/φ35-mm dish, and cultivated for 24 hours in a standard culture medium, and the cells were transfected using Lipofectamine 2000 (Invitrogen, Carsbad, Calif., USA) and using a plasmid vector containing a T-type calcium channel (Cav 3.1) genes (serum-free culture of Lipofectamine 2000: DNA=1 μl: 1 μg, 1.5 ml). The T-type calcium channel (Cav 3.1) gene, the plasmid vector pCMV-SPORT6, and the Lipofectamine 2000 were respectively purchased from OriGene Technologies, Inc., Thermo Fisher Scientific Ltd., and Invitrogen, and the transfection was performed according to the protocol attached to Lipofectamine 2000 other than the rate adjustment of the Lipofectamine 2000 and plasmid vector. The serum-free culture was replaced with a standard culture 6 hours after transfect, and calcium imaging (calcium concentration measurement) was performed after Cav 3.1 expression was confirmed after 48 hours of culture. T-type calcium channel expressing Neuor2A cells were dispersed in a glass bottom dish, and 2.5 μM of Fura-2-AM (Sigma, St Louis, Mo., USA) was added to the dish in perfusion (Krebs-Hepes buffer; KRH), then the dish was incubated at 37° C. for 30 minutes. A Fura-2-AM-free KRH was replaced with perfusion, and the Neuro2A cells were stimulized with SAK3 (100 pM) as the intracellular calcium was measured with a fluorescent microscope, then the cells were further stimulized with nicotin (1 μM), ATP (0.1 μM), DHPG (20 μM), as necessary.

[5] = target: T1, T-type calcium channel (Cav 3.1) (Homo sapiens, UniProt O43497); test: Calcium imaging (Fura-2) in Cav 3.1 gene-transfected Neuro2A cells; format: cell-based, mouse; conditions: for change in calcium concentration after SAK3 addition: Cav3.1 expressing cells
T1 construct: Thermo Fisher Scientific Ltd. (vector pCMV-SPORT6); host or cells: mouse neuroblastoma cell line Neuro2A, transient transfection with Lipofectamine 2000
T1 sequence (O43497 whole entry): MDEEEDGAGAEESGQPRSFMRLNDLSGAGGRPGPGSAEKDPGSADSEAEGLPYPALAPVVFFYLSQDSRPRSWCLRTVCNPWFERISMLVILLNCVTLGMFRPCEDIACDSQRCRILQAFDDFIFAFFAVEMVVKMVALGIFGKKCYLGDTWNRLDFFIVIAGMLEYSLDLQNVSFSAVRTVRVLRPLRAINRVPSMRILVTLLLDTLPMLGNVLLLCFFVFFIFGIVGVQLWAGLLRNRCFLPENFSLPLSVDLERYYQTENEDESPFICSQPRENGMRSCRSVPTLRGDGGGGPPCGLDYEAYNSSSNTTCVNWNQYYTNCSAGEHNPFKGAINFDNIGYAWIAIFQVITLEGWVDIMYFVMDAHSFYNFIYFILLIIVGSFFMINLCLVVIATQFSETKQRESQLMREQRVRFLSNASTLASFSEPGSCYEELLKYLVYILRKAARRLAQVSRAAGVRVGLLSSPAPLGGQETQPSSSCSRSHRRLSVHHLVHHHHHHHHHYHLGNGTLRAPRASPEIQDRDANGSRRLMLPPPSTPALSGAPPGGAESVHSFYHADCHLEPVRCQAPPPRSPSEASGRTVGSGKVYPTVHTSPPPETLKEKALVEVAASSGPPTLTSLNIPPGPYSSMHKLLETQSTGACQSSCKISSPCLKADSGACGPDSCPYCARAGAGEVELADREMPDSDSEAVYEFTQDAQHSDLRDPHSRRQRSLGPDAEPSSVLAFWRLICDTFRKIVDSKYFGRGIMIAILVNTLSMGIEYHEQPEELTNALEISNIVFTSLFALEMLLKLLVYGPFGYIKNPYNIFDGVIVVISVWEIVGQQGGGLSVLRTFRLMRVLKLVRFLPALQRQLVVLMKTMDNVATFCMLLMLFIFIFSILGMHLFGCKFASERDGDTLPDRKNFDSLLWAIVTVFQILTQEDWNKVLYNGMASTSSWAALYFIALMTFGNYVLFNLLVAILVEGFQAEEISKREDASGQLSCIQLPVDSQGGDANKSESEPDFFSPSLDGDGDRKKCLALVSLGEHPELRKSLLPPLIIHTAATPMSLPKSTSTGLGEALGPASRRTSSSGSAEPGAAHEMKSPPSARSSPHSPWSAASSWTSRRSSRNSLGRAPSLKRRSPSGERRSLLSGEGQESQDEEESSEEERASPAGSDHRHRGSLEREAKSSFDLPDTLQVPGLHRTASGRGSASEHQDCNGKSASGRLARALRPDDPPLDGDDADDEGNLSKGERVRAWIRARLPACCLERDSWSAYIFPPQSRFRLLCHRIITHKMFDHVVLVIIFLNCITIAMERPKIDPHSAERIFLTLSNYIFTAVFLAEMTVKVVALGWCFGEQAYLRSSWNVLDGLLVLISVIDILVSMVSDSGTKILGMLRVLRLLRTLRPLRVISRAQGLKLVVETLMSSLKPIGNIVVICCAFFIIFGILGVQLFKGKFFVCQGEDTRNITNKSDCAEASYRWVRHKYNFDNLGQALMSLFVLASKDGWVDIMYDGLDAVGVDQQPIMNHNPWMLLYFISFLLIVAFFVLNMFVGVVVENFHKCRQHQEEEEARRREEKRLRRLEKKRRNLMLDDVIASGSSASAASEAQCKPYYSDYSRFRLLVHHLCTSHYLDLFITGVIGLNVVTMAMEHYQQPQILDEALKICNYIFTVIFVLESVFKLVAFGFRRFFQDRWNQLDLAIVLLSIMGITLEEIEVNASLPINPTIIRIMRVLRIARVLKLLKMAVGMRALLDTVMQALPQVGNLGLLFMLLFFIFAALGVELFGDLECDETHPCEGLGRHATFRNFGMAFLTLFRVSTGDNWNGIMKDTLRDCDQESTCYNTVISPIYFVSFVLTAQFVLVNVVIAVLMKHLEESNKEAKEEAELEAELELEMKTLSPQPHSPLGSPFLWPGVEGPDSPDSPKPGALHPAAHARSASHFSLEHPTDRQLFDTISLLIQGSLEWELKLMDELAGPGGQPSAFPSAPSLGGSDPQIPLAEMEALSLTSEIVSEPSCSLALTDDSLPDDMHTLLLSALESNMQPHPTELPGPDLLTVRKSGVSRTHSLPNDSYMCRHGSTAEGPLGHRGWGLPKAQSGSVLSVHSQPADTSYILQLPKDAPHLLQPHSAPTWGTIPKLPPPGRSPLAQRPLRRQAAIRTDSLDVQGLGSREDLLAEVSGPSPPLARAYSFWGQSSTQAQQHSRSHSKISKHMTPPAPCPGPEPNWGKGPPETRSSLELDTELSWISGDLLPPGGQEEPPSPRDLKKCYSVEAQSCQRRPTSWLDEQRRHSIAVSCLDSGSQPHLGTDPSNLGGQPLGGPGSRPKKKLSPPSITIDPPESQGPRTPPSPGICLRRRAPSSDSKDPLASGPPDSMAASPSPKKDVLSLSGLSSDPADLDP
Procedure: as §2

[6] = test system: olfactolectomy mouse (OBX mouse); test: Y maze test in olfactolectomized (OBX) mouse; format: in vivo; conditions: 1 mg/kg administered into the abdominal, 30 minutes before test
Procedure: (§3) A 10 weeks old DDY male mouse (Nippon SLC, Hamamatsu, Japan) was used in the experiment. The animal was bred in an animal experiment facility in the Pharmaceutical Research Department of the Tohoku University Graduate School under a certain condition (temperature 22±2° C., 12 h: 12 h light-dark cycle) by freely providing water and a feed. Note that the handling of animals and animal experiments in the present paper was performed with an approval of Tohoku University Experimental Animal Committee and under the Tohoku University Animal Experiment Guideline.
(§4) An olfactolectomy mouse (OBX mouse) was prepared using a DDY male mouse. The olfactolectomy operation was performed under the condition of anesthesia by pentobarbital sodium (50 mg/kg i.p.; Dainippon, Osaka, Japan). […]
Y maze test: A Y maze test was performed to assess the spontaneous action amount and the spatial activity memory of a mouse. The mouse was place at the end of one of the arms in the Y maze and allowed to freely explore the maze for 8 minutes, then the positions of the arms that the mouse travelled were recorded in the order of selection. The number of times that the mouse travelled to each arm in the time of measurement was counted as total arm entries. Further, the combinations of consecutively selecting 3 different arms were counted as No. of alternation. […]

[7] = test system: olfactolectomy mouse (OBX mouse); test: Novel object recognition test in olfactolectomized (OBX) mouse; format: in vivo; conditions: 1 mg/kg administered into the abdominal, 30 minutes before test
Procedure: as §3
as §4, with “Japan). The mouse was fixed to a brain brace, and the skull bone above the olfactory bulb was drilled to open a hole of 1 mm diameter.” for “Japan).”
Novel object recognition test: The present test uses a mouse's characteristic of preferring novel objects, and the mouse was allowed to freely explore the device in which 2 objects are placed for 10 minutes (training session). […] The numbers of contacts for the 2 objects in the training session and the trial session were measured. The percentage (%) of the number of contacts of the novel object against the number of total contacts in the trial session was calculated as the Discrimination index.

[8] = test system: olfactolectomy mouse (OBX mouse); test: Acetylcholine liberation in hippocampus by microdialysis; format: in vivo
Procedure: The amount of acetylcholine liberated in hippocampus is measured by the microdialysis method. The set up of guide cannula and dialysis probe (AG-4; Eicom, Kyoto, Japan) was conducted by fixing the mouse to the brain stereotaxis apparatus under the condition of maintaining anesthesia by 1.5% halothane (Takeda Chemical Industries Ltd., Osaka, Japan), setting up a guide cannula to the left hippocampus (AP=+3. L=+3, V=-1.8), and inserting a dialysis probe to the guide cannula. The collection of a intracerebral Ach sample from a mouse hippocampus was performed a day after the probe set up operation. After the recovery of the mouse from the operation was confirmed, the probe was connected to a micropump (ESP-64; Eicom) under an unanesthetized state and free activity, and a Ringer's solution (1.3 mM CaCl2. 3 mM KCl, 146 mM NaCl and 1 mM MgSO4) was introduced at a flow rate of 2 μL per minute. The dialysis sample was collected every 19.5 minutes and inserted to the acetylcholine separation column using an autoinjector (EAS-20, Eicom), and a system for a trace element analysis of biological samples (HTEC-500; Eicom) was used for analysis. SAK3 was intraperitoneally administered at 40 minutes before test (at the -40 minutes point in the graph of FIG. 8). […]

[9] = test system: CaMKII; test: CaMKII self-phosphorylation (activation) in cultured mouse cerebral cortex cell, immunoblot; format: cell-based; conditions: 100 pM, 30 minutes of incubation
Procedure: The above frozen mouse brain slice segment (hippocampus CA1 region) is used for homogenization on ice by adding 150 μL homogenizing buffer (50 mM Tris-HCl pH 7.5, 0.5% Triton X-100, 4 mM EGTA, 0.5 M NaCl, 10 mM EDTA, 1 mM Na3VO4, 30 mM sodium pyrophosphate, 50 mM NaF, 1 mM DTT, 100 nM calyculin A, 50 μg/mL leupeptin, 25 μg/mL pepstatin A, 50 μg/mL trypsin inhibitor) per sample. Then, centrifugation was performed using a refrigerated centrifuge (14,000×g, 10 minutes, 4° C.), after which 100 μL of supernatant was collected and 20 μL of 6× Laemmli buffer was added to the supernatant to be boiled at 100° C. for 3 minutes, to form an immunoblotting sample. The protein concentration was measured by the Bradford method using a part of the supernatant. Reagants containing the same amount of protein were added to 10% SDS-polyacrylamido electrophoresis gel (SDS-PAGE gel), and SDS-PAGE was performed at 80 mA per 1 sheet of gel for 180 minutes. After separation by electrophoresis, transcription to a PVDF membrane was performed at 70 V for 120 minutes. […] After washing with a TTBS solution, ECL detection system (GE healthcare) was used to induce luminescence of HRP that labels the second antibody, and the X-ray film (Fuji Medical X-ray Film, Fuji Film) was sensitized to detect the band. An NIH image analysis software was used for a quantification analysis of the immunoreaction product.
The dispersion cultivation of a mouse cerebral cortex cell was performed by a previously reported method (Fukunaga et al., J. Biol. Chem. 267, 22527-22533, 1992). […] The frozen cerebral cortex cells were subjected to quantification analysis of the activation state (self-phosphorylation reaction) of CaMKII by the immunoblotting method after homogenization, similarly to the method in Test Example 2.

Compound: COc1cc2c(cc1OC)C(=O)C(CC1CCN(Cc3ccccc3)CC1)C2 (stereo not shown) [Donepezil hydrochloride]
efficacy ratio of the clinical result [1]: about 50%

Compound: CCOC(=O)C1=C(SC)C2(CC1=O)C(=O)N=C1C=CC=CN12 (stereo not shown) [SAK1]
LTP potentiation effect [2]: a strong potentiation effect was observed
phosphorylated CaMKII / CaMKII activation [3]: an increase of phosphorylated CaMKII and a potentiation of CaMKII activation were confirmed

amount of influent calcium ion induced by adding ATP ([5]; ATP 0.1 μM, under the presence of SAK3 100 pM, transfected cells): not potentiated
increase in amount of influent calcium ion induced by SAK3 ([5]; Cav3.1 transfected cells, addition of mibefradil (10 μM)): nearly cancelled out
amount of influent calcium ion induced by adding DHPG ([5]; DHPG 20 μM, under the presence of SAK3 100 pM, transfected cells): not potentiated
activation of T-type voltage dependent calcium channel relative to ST101 ([5]; compared with ST101): ≥ 10 folds
increase of the amount of influent calcium ion induced by nicotin under the presence of SAK3, transfected cells relative to non-transfected cells ([5]; nicotin 1 μM, SAK3 100 pM): 2 folds
effect of SAK3 on amount of influent calcium ion induced by nicotin ([5]; nicotin 1 μM, mibefradil (10 μM) added): cancelled out
Compound: CCOC(=O)C1=C(N2CCCCC2)C2(CC1=O)C(=O)N=C1C(C)=CC=CN12 (stereo not shown) [SAK3]
LTP potentiation effect [2]: a strong potentiation effect was observed
phosphorylated CaMKII / CaMKII activation [3]: an increase of phosphorylated CaMKII and a potentiation of CaMKII activation were confirmed
change in calcium concentration after SAK3 addition ([4]; Cav3.1 non-expressing cell, SAK3 100 pM): there was no change in the calcium concentration
amount of intracellular influent calcium ion induced by SAK3 ([4]; Cav3.1 non-transfected cells, SAK3 100 pM): do not show the change in the amount of influent calcium ion
change in calcium concentration after SAK3 addition ([5]; SAK3 100 pM): An increase in calcium concentration was confirmed
change in calcium concentration after SAK3 addition ([5]; SAK3 100 pM, mibefradil (10 μM) added): no increase in calcium concentration by SAK3 was confirmed
amount of intracellular influent calcium ion induced by SAK3 ([5]; Cav3.1 transfected cells, SAK3 100 pM): showed an increase in the amount of influent calcium ion
improvement of cognitive dysfunction by olfactolectomy (Y maze test) [6]: almost completely improved
improvement of cognitive dysfunction by olfactolectomy (novel object recognition test) [7]: almost completely improved
amount of acetylcholine liberated by nicotine in hippocampus ([8]; 1.0 mg/kg administration group, compared with Sham group): above that of the Sham group
amount of acetylcholine liberated by nicotine in hippocampus ([8]; intraperitoneal, 40 minutes before test, versus group without SAK3): increased
phosphorylated CaMKII / activation of CaMKII [9]: increased phosphorylated CaMKII

Compound: CCOC(=O)C1=C(N2CCCCC2)C2(CC1=O)C(=O)N=C1C=CC=CN12 (stereo not shown) [SAK8]
phosphorylated CaMKII / activation of CaMKII [9]: increased phosphorylated CaMKII

Compound: CCOC(=O)C1=C(N2CCCCC2)C2(CC1=O)C(=O)N=C1C(C)=CC(C)=CN12 (stereo not shown) [SAK9]
phosphorylated CaMKII / activation of CaMKII [9]: increased phosphorylated CaMKII

Compound: O=C1N=C2C=CC=CN2C12Cc1ccccc1C2 [ST101, reference compound]
LTP potentiation effect [2]: does not show a strong LTP potentiation effect

Compound: CN1CCCC1c1cccnc1 (stereo not shown) [nicotin, reference compound]
change in calcium concentration after adding nicotin ([4]; Cav3.1 non-expressing cell, nicotin 1 μM): an increase in the calcium concentration after adding nicotin was confirmed
